Results: ChEMBL document CHEMBL1201862, “PubChem BioAssay data set” (2004)
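A five-concentration, 48-hour dose response in 96-well plates underlies each endpoint, interpolated linearly between surrounding concentrations. The concentration for 50% growth inhibition is given as GI50.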 Activity calls are given as the source filed them. No stated cut-off is given here; in the data, active = GI50 up to about 1.1 µM and inactive = higher.

What was measured:
Assay in all cases: inhibition of tumour cell growth, NCI panel, 48 h
[1] = test system: A549
[2] = test system: HCC 2998
[3] = test system: HCT-116
[4] = test system: HL-60
[5] = test system: IGROV-1
[6] = test system: KM12
[7] = test system: M14
[8] = test system: NCI-H23
[9] = test system: RXF 393
[10] = test system: SF-268
[11] = test system: SF-539
[12] = test system: SK-MEL-2
[13] = test system: SK-MEL-5
[14] = test system: SN12C
[15] = test system: U-251
[16] = test system: UACC-62
[17] = test system: ACHN
[18] = test system: CAKI-1
[19] = test system: NCI-H460
[20] = test system: SR

Row | SMILES | GI50 [1] | GI50 [2] | GI50 [3] | GI50 [4] | GI50 [5] | GI50 [6] | GI50 [7] | GI50 [8] | GI50 [9] | GI50 [10] | GI50 [11] | GI50 [12] | GI50 [13] | GI50 [14] | GI50 [15] | GI50 [16] | GI50 [17] | GI50 [18] | GI50 [19] | GI50 [20]
1 | COc1ccc(C(=O)NNC(=O)c2nsc3ccccc23)cc1 | > 100 µM (inactive) | > 100 µM (inactive) | 83.6 µM (inactive) | 23.3 µM (inactive) | > 100 µM (inactive) | > 100 µM (inactive) | 85.7 µM (inactive) | > 100 µM (inactive) | > 100 µM (inactive) | > 100 µM (inactive) | > 100 µM (inactive) | > 100 µM (inactive) | > 100 µM (inactive) | > 100 µM (inactive) | 41.1 µM (inactive) | > 100 µM (inactive) | – | – | – | –
2 | CCOC(=O)C1CCn2c(nc3c2c(=O)n(C)c(=O)n3C)S1 (stereo not drawn) | > 100 µM (inactive) | – | > 100 µM (inactive) | > 100 µM (inactive) | > 100 µM (inactive) | – | > 100 µM (inactive) | > 100 µM (inactive) | > 100 µM (inactive) | > 100 µM (inactive) | > 100 µM (inactive) | > 100 µM (inactive) | > 100 µM (inactive) | > 100 µM (inactive) | > 100 µM (inactive) | > 100 µM (inactive) | > 100 µM (inactive) | > 100 µM (inactive) | > 100 µM (inactive) | 77.1 µM (inactive)
3 | O=C(NN1C(=O)CSC1c1cccc(F)c1)c1ccncc1 (stereo not drawn) | > 100 µM (inactive) | > 100 µM (inactive) | – | > 100 µM (inactive) | > 100 µM (inactive) | > 100 µM (inactive) | > 100 µM (inactive) | > 100 µM (inactive) | > 100 µM (inactive) | > 100 µM (inactive) | > 100 µM (inactive) | > 100 µM (inactive) | > 100 µM (inactive) | > 100 µM (inactive) | > 100 µM (inactive) | > 100 µM (inactive) | > 100 µM (inactive) | > 100 µM (inactive) | – | –
4 | C[C@H]1S[C@@H](c2ccc(Cl)cc2Cl)N(NC(=O)c2ccncc2)C1=O | – | – | 34.5 µM (inactive) | 98.4 µM (inactive) | > 100 µM (inactive) | > 100 µM (inactive) | 61.8 µM (inactive) | 50.4 µM (inactive) | 25.4 µM (inactive) | – | – | 27.3 µM (inactive) | 44.8 µM (inactive) | 71.3 µM (inactive) | 64 µM (inactive) | 29.6 µM (inactive) | – | 56.2 µM (inactive) | 58.2 µM (inactive) | 79.4 µM (inactive)
5 | Nc1ccccc1C(=O)N/N=C1\C(=O)Nc2ccccc21 | > 100 µM (inactive) | > 100 µM (inactive) | > 100 µM (inactive) | – | 64 µM (inactive) | 88.5 µM (inactive) | > 100 µM (inactive) | 56.2 µM (inactive) | 68.7 µM (inactive) | 88.7 µM (inactive) | > 100 µM (inactive) | > 100 µM (inactive) | > 100 µM (inactive) | > 100 µM (inactive) | 40.2 µM (inactive) | > 100 µM (inactive) | 56.4 µM (inactive) | > 100 µM (inactive) | > 100 µM (inactive) | > 100 µM (inactive)
6 | Cc1cc(=O)c2c([nH]1)NS(=O)(=O)NC2=O | > 100 µM (inactive) | > 100 µM (inactive) | > 100 µM (inactive) | > 100 µM (inactive) | > 100 µM (inactive) | > 100 µM (inactive) | > 100 µM (inactive) | > 100 µM (inactive) | – | > 100 µM (inactive) | > 100 µM (inactive) | > 100 µM (inactive) | – | > 100 µM (inactive) | – | > 100 µM (inactive) | – | > 100 µM (inactive) | – | > 100 µM (inactive)
7 | Cc1n[nH]c(CC#N)n1 | > 100 µM (inactive) | > 100 µM (inactive) | > 100 µM (inactive) | – | > 100 µM (inactive) | > 100 µM (inactive) | > 100 µM (inactive) | > 100 µM (inactive) | > 100 µM (inactive) | > 100 µM (inactive) | > 100 µM (inactive) | > 100 µM (inactive) | > 100 µM (inactive) | > 100 µM (inactive) | > 100 µM (inactive) | > 100 µM (inactive) | > 100 µM (inactive) | – | – | > 100 µM (inactive)
8 | COc1cc(/C=C2\N=C(c3ccccc3)N(C3Nc4cc5c(cc4S3)NC(N3C(=O)/C(=C/c4cc(OC)c(OC)c(OC)c4)N=C3c3ccccc3)S5)C2=O)cc(OC)c1OC (stereo not drawn) | 23.6 µM (inactive) | > 100 µM (inactive) | 77.6 µM (inactive) | 65.9 µM (inactive) | > 100 µM (inactive) | 89.3 µM (inactive) | > 100 µM (inactive) | 94.6 µM (inactive) | > 100 µM (inactive) | > 100 µM (inactive) | 42 µM (inactive) | > 100 µM (inactive) | 64.9 µM (inactive) | – | 45.2 µM (inactive) | – | > 100 µM (inactive) | 39.9 µM (inactive) | 13.7 µM (inactive) | 20.5 µM (inactive)
9 | CC1CC2=C(S(=O)(=O)c3ccccc3)CC(S(=O)(=O)c3ccccc3)(S(=O)(=O)c3ccccc3)CC21 (stereo not drawn) | > 100 µM (inactive) | > 100 µM (inactive) | 21.9 µM (inactive) | 16.6 µM (inactive) | > 100 µM (inactive) | > 100 µM (inactive) | > 100 µM (inactive) | > 100 µM (inactive) | > 100 µM (inactive) | > 100 µM (inactive) | > 100 µM (inactive) | > 100 µM (inactive) | > 100 µM (inactive) | > 100 µM (inactive) | 72.6 µM (inactive) | > 100 µM (inactive) | > 100 µM (inactive) | – | > 100 µM (inactive) | > 100 µM (inactive)
10 | O=C1Nc2ccc(Cl)cc2/C1=C\c1c(Cl)nc2sccn12 | – | 2.14 µM (inactive) | 4.23 µM (inactive) | 4.07 µM (inactive) | 8.51 µM (inactive) | 2.25 µM (inactive) | 34.2 µM (inactive) | 59 µM (inactive) | 18.6 µM (inactive) | > 100 µM (inactive) | – | 0.314 µM (active) | – | > 100 µM (inactive) | 2.93 µM (inactive) | – | > 100 µM (inactive) | 18.7 µM (inactive) | 1.96 µM (inactive) | 0.338 µM (active)
11 | CC[C@H]1CC(=O)c2c(cc3c(c2O)C(=O)c2ccccc2C3=O)[C@@]1(C#N)C(=O)OC(C)(C)C | 3.27 µM (inactive) | 5.47 µM (inactive) | 2.7 µM (inactive) | – | 2.4 µM (inactive) | 2.62 µM (inactive) | 3.65 µM (inactive) | 3.24 µM (inactive) | 5.2 µM (inactive) | 5.36 µM (inactive) | 4.13 µM (inactive) | 2.17 µM (inactive) | 1.9 µM (inactive) | 3.97 µM (inactive) | 3.48 µM (inactive) | 4.35 µM (inactive) | 3.31 µM (inactive) | – | 2.7 µM (inactive) | 3.66 µM (inactive)
12 | CN(C)CCNC(=O)c1cc2ccccc2c2nc3ccccc3nc12 | 0.977 µM (active) | 1.1 µM (active) | 0.373 µM (active) | – | 1.45 µM (inactive) | 0.804 µM (active) | 1.75 µM (inactive) | 1.17 µM (inactive) | 1.02 µM (active) | 0.0617 µM (active) | 0.845 µM (active) | 1.37 µM (inactive) | 1.79 µM (inactive) | 0.736 µM (active) | 0.986 µM (active) | 2 µM (inactive) | 0.407 µM (active) | 2.67 µM (inactive) | – | 0.163 µM (active)
13 | Cn1c(=O)c(C#N)c(O)c2cc3ccccc3nc21 | > 100 µM (inactive) | > 100 µM (inactive) | > 100 µM (inactive) | > 100 µM (inactive) | > 100 µM (inactive) | > 100 µM (inactive) | > 100 µM (inactive) | > 100 µM (inactive) | > 100 µM (inactive) | > 100 µM (inactive) | > 100 µM (inactive) | > 100 µM (inactive) | > 100 µM (inactive) | > 100 µM (inactive) | > 100 µM (inactive) | – | > 100 µM (inactive) | > 100 µM (inactive) | > 100 µM (inactive) | > 100 µM (inactive)
14 | O=C(OCCOC(=O)c1ccc2c(c1)C1(SCCS1)c1ccccc1-2)c1ccc2c(c1)C1(SCCS1)c1ccccc1-2 | > 100 µM (inactive) | > 100 µM (inactive) | > 100 µM (inactive) | > 100 µM (inactive) | > 100 µM (inactive) | > 100 µM (inactive) | > 100 µM (inactive) | > 100 µM (inactive) | – | > 100 µM (inactive) | > 100 µM (inactive) | > 100 µM (inactive) | > 100 µM (inactive) | > 100 µM (inactive) | > 100 µM (inactive) | > 100 µM (inactive) | > 100 µM (inactive) | > 100 µM (inactive) | > 100 µM (inactive) | > 100 µM (inactive)
15 | CC(=O)OC1CC2CCN3C(=O)c4cc5c(cc4[C@H](C1OC(C)=O)C23)OCO5 (stereo partly drawn) | > 100 µM (inactive) | > 100 µM (inactive) | > 100 µM (inactive) | > 100 µM (inactive) | > 100 µM (inactive) | > 100 µM (inactive) | > 100 µM (inactive) | > 100 µM (inactive) | > 100 µM (inactive) | > 100 µM (inactive) | > 100 µM (inactive) | – | – | > 100 µM (inactive) | > 100 µM (inactive) | > 100 µM (inactive) | > 100 µM (inactive) | – | > 100 µM (inactive) | > 100 µM (inactive)
16 | O=C1NC(O)CCN1C1OC(CO)C(O)C1O (stereo not drawn) | > 250 µM (inactive) | > 250 µM (inactive) | > 141 µM (inactive) | > 250 µM (inactive) | > 250 µM (inactive) | > 250 µM (inactive) | – | > 250 µM (inactive) | > 250 µM (inactive) | > 250 µM (inactive) | > 250 µM (inactive) | > 158 µM (inactive) | > 66.4 µM (inactive) | > 250 µM (inactive) | > 79.8 µM (inactive) | > 250 µM (inactive) | – | > 250 µM (inactive) | > 250 µM (inactive) | –
